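How tested: cells in 96-well plates exposed to compound for 48 hours at five concentrations. GI50 is the concentration that inhibits growth by half.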 The source made the active and inactive calls. No stated cut-off is given here; in the data, active = GI50 up to about 1.1 µM and inactive = higher.
Assays:
Experiment in all cases: growth of human tumour cells (NCI), 48 h
CCRF-CEM = tested on: CCRF-CEM
SK-OV-3 = tested on: SK-OV-3
NCI-H460 = tested on: NCI-H460
U-251 = tested on: U-251
OVCAR-4 = tested on: OVCAR-4
NCI-H226 = tested on: NCI-H226
SF-295 = tested on: SF-295
Malme-3M = tested on: Malme-3M
SNB-75 = tested on: SNB-75
UACC-257 = tested on: UACC-257
COLO 205 = tested on: COLO 205
SNB-19 = tested on: SNB-19
MCF7 = tested on: MCF7
OVCAR-8 = tested on: OVCAR-8
MDA-MB-231 = tested on: MDA-MB-231
HCC 2998 = tested on: HCC 2998
RXF 393 = tested on: RXF 393
A498 = tested on: A498
SK-MEL-5 = tested on: SK-MEL-5
HL-60 = tested on: HL-60
UO-31 = tested on: UO-31
K562 = tested on: K562
MOLT-4 = tested on: MOLT-4
SK-MEL-2 = tested on: SK-MEL-2
OVCAR-5 = tested on: OVCAR-5
PC-3 = tested on: PC-3
HT-29 = tested on: HT-29
SN12C = tested on: SN12C
HOP-62 = tested on: HOP-62
MDA-N = tested on: MDA-N
SF-268 = tested on: SF-268
EKVX = tested on: EKVX
OVCAR-3 = tested on: OVCAR-3
LOX IMVI = tested on: LOX IMVI
SR = tested on: SR
M14 = tested on: M14
CAKI-1 = tested on: CAKI-1
TK-10 = tested on: TK-10
NCI-H522 = tested on: NCI-H522
ACHN = tested on: ACHN
SF-539 = tested on: SF-539
RPMI-8226 = tested on: RPMI-8226
IGROV-1 = tested on: IGROV-1
NCI/ADR-RES = tested on: NCI/ADR-RES
NCI-H23 = tested on: NCI-H23
DU-145 = tested on: DU-145
Hs-578T = tested on: Hs-578T
KM12 = tested on: KM12
SW-620 = tested on: SW-620
786-0 = tested on: 786-0
T47D = tested on: T47D
SK-MEL-28 = tested on: SK-MEL-28
HOP-92 = tested on: HOP-92
MDA-MB-435 = tested on: MDA-MB-435
HCT-15 = tested on: HCT-15
A549 = tested on: A549
HCT-116 = tested on: HCT-116

Measured: GI50

CC(=O)OC12c3ccccc3-c3ccccc3C1C1C(=O)OC(=O)C12 (centres undefined)
> 10 µM: HCT-15
inactive: CCRF-CEM > 10 µM | SK-OV-3 > 10 µM | NCI-H460 > 10 µM | U-251 > 10 µM | OVCAR-4 > 10 µM | NCI-H226 > 10 µM | SF-295 > 10 µM | Malme-3M > 10 µM | SNB-75 > 10 µM | UACC-257 > 10 µM | COLO 205 > 10 µM | SNB-19 > 10 µM | MCF7 > 10 µM | OVCAR-8 > 10 µM | MDA-MB-231 > 10 µM | HCC 2998 > 10 µM | RXF 393 > 10 µM | A498 > 10 µM | SK-MEL-5 > 10 µM | HL-60 > 10 µM | UO-31 > 10 µM | K562 > 10 µM | MOLT-4 > 10 µM | SK-MEL-2 > 10 µM | OVCAR-5 > 10 µM | PC-3 > 10 µM | HT-29 > 10 µM | SN12C > 10 µM | HOP-62 > 10 µM | MDA-N > 10 µM | SF-268 > 10 µM | EKVX > 10 µM | OVCAR-3 > 10 µM | LOX IMVI > 10 µM | SR > 10 µM | M14 > 10 µM | CAKI-1 > 10 µM | TK-10 > 10 µM | NCI-H522 > 10 µM | ACHN > 10 µM | SF-539 > 10 µM | RPMI-8226 > 10 µM | IGROV-1 > 10 µM | NCI/ADR-RES > 10 µM | NCI-H23 > 10 µM | DU-145 > 10 µM | Hs-578T > 10 µM | KM12 > 10 µM | SW-620 > 10 µM | 786-0 > 10 µM | T47D > 10 µM | SK-MEL-28 > 10 µM | HOP-92 > 10 µM | MDA-MB-435 > 10 µM

CCOC(=O)Cn1c(=O)c2nc(SC)sc2n(CC)c1=S
65.5 µM: HCT-15
active: 786-0 0.173 µM
inactive: CCRF-CEM > 100 µM | SK-OV-3 > 100 µM | NCI-H460 > 100 µM | U-251 > 100 µM | OVCAR-4 59.8 µM | NCI-H226 > 100 µM | SF-295 > 100 µM | Malme-3M > 100 µM | SNB-75 9.38 µM | UACC-257 > 100 µM | COLO 205 > 100 µM | SNB-19 > 100 µM | MCF7 > 100 µM | OVCAR-8 > 100 µM | MDA-MB-231 > 100 µM | HCC 2998 > 100 µM | RXF 393 36.8 µM | SK-MEL-5 > 100 µM | HL-60 > 100 µM | UO-31 14.2 µM | K562 > 100 µM | MOLT-4 > 100 µM | SK-MEL-2 > 100 µM | OVCAR-5 > 100 µM | PC-3 > 100 µM | HT-29 > 100 µM | SN12C > 100 µM | HOP-62 > 100 µM | MDA-N > 100 µM | SF-268 > 100 µM | OVCAR-3 > 100 µM | LOX IMVI > 100 µM | SR > 100 µM | A549 > 100 µM | M14 5.78 µM | TK-10 > 100 µM | NCI-H522 > 100 µM | ACHN > 100 µM | SF-539 > 100 µM | RPMI-8226 > 100 µM | IGROV-1 94 µM | NCI/ADR-RES > 100 µM | NCI-H23 > 100 µM | DU-145 > 100 µM | Hs-578T 22.1 µM | KM12 > 100 µM | SW-620 > 100 µM | HCT-116 > 100 µM | T47D 61 µM | SK-MEL-28 > 100 µM | HOP-92 82.6 µM | MDA-MB-435 1.71 µM

— ChEMBL document CHEMBL1201862, “PubChem BioAssay data set” (2004)
